Experimental data: ChEMBL document CHEMBL1137512, “Synthesis and evaluation of chloromethyl sulfoxides as a new class of selective irreversible cysteine protease inhibitors” (Bioorg Med Chem, 2007)
Calls of active or inactive are those of the source. The calls are words filed in the database; no cut-off is given here.

Tests used:
[1] = Inhibition of papain by colorimetric assay
[2] = Binding affinity to papain at 10 uM by fluorescent binding test

| Ki [1] [µM] | Activity [2] [%] | Activity [1] | SMILES |
| --- | --- | --- | --- |
| 142 |  |  | CC(C)(C)OC(=O)N[C@@H](Cc1ccccc1)C[S+]([O-])CCl (stereo partly drawn) |
| 485 |  |  | CC(C)C[C@@H](C[S+]([O-])CCl)NC(=O)OC(C)(C)C (stereo partly drawn) |
| 543 |  |  | CC(C)[C@@H](C[S+]([O-])CCl)NC(=O)OC(C)(C)C (stereo partly drawn) |
| 1430 |  |  | C[C@@H](C[S+]([O-])CCl)NC(=O)OC(C)(C)C (stereo partly drawn) |
| 3670 |  |  | CC(C)(C)OC(=O)N[C@@H](Cc1ccccc1)C(=O)NCC[S+]([O-])CCl (stereo partly drawn) |
| 471 | 40 |  | CN(C)c1cccc2c(S(=O)(=O)NCC(=O)NCC[S+]([O-])CCl)cccc12 (stereo not drawn) |
|  |  | inactive | CC(C)(C)OC(=O)NCC[S+]([O-])CCl (stereo not drawn) |
